# System: Mycobacterium tuberculosis
# Assay: Antimycobacterial activity against rifampin,isoniazid-resistant Mycobacterium tuberculosis expressing rpoB/katG mutant after 10 days by microbroth dilution method
# Assay type: functional
row,SMILES,MIC
1,c1csc(-c2ccc(-c3ccncn3)s2)c1,51.16 µM
2,Brc1ccc(-c2cncnc2)s1,51.84 µM
3,c1csc(-c2ncncc2-c2ccsc2)c1,25.58 µM
4,c1csc(-c2ccc(-c3ncncc3-c3ccsc3)s2)c1,19.14 µM
5,c1ccc(-c2ccc(-c3ncncc3-c3ccsc3)s2)cc1,19.5 µM
6,Brc1ccc(-c2ncncc2-c2ccsc2)s1,19.34 µM
7,c1csc(-c2ncncc2-c2cc3ccccc3s2)c1,21.23 µM
8,c1csc(-c2ccc(-c3ncncc3-c3cc4ccccc4s3)s2)c1,33.2 µM
9,c1ccc(-c2ccc(-c3ncncc3-c3cc4ccccc4s3)s2)cc1,8.37 µM
10,Brc1ccc(-c2ncncc2-c2cc3ccccc3s2)s1,33.49 µM
11,c1csc(-c2ncncc2-c2csc3ccccc23)c1,42.46 µM
12,c1csc(-c2ccc(-c3ncncc3-c3csc4ccccc34)s2)c1,0.98 µM
13,c1ccc(-c2ccc(-c3ncncc3-c3csc4ccccc34)s2)cc1,0.4 µM
14,Brc1ccc(-c2ncncc2-c2csc3ccccc23)s1,8.3 µM
15,Brc1cncnc1,78.62 µM
16,c1csc(-c2cncnc2)c1,38.53 µM
17,c1ncc(-c2ccsc2)cn1,77.06 µM
18,c1ccc2sc(-c3cncnc3)cc2c1,58.89 µM
19,c1ccc2c(-c3cncnc3)csc2c1,7.07 µM
20,c1csc(-c2ccc(-c3cncnc3)s2)c1,25.58 µM
21,c1ccc(-c2ccc(-c3cncnc3)s2)cc1,26.23 µM
22,Brc1ccc(-c2ncncc2Br)s1,9.69 µM
23,c1csc(-c2cncnc2-c2cccs2)c1,12.69 µM
24,c1csc(-c2ccc(-c3ncncc3-c3cccs3)s2)c1,2.14 µM
25,c1ccc(-c2ccc(-c3ncncc3-c3cccs3)s2)cc1,39.01 µM
26,Brc1ccc(-c2ncncc2-c2cccs2)s1,38.67 µM

# — ChEMBL document CHEMBL3421531, “Synthesis, and structure-activity relationship for C(4) and/or C(5) thienyl substituted pyrimidines, as a new family of antimycobacterial compounds” (Eur J Med Chem, 2015)
